{
  "source": "paper PMC12320299",
  "about": "(Chemical Science, 2025)",
  "key": {"p21": {"system": "p21", "test": "p21 expression, western blotting and immunofluorescence, SW480", "assay_type": "cell-based, human", "details": "24 h, 1 μM", "protocol": "overnight at –20 °C. The pellet containing the nuclei was incubated with a hypertonic solution (10 mM Tris-HCl, 1 mM EDTA and 0.5 M NaCl) and subsequently diluted 1:10 with NP-40 buffer (10 mm Tris-HCl, 1 mm EDTA and 0.5% Triton X-100) containing protease inhibitors (1% PMSF, Sigma, and 1% protease and phosphatase inhibitor cocktail, Roche). After centrifugation (960 g, 5 min), the soluble nuclear (NE) proteins were also transferred into new tubes containing ice-cold ethanol (1 : 5, HPLC grade) and precipitated overnight at –20 °C.\nThe precipitated proteins were finally pelleted by centrifugation (5000 g, 30 min, 4 °C), the solution was decanted and the pellet dried under vacuum.\nSamples were then dissolved in lysis buffer (8 M urea, 20% SDS, 1 M TEAB at pH 7.55) and denatured at 95 °C for 5 min. The protein amount was then quantified using a BCA assay. A total of 20 µg protein per sample was used for processing. Proteins were reduced with 50 µL of DTT (64 mM) and carbamidomethylated with 50 µL of iodoacetamide (486 mM). […]\nand allowed to adhere overnight. […] For whole cell lysates, samples were collected, proteins isolated, and Western blotting performed as described in detail previously.5 In brief, protein concentration was determined using the Micro BCA™ Protein Assay Kit (Thermo Fisher Scientific, Waltham, MA, USA). […]"}, "[1]": {"biological_target": "T1, ATP-dependent RNA helicase DDX3X (Homo sapiens, UniProt O00571)", "T1 construct": "endogenous in cells; host or cells: SW480 whole cell lysate", "T1 sequence (O00571 whole entry)": "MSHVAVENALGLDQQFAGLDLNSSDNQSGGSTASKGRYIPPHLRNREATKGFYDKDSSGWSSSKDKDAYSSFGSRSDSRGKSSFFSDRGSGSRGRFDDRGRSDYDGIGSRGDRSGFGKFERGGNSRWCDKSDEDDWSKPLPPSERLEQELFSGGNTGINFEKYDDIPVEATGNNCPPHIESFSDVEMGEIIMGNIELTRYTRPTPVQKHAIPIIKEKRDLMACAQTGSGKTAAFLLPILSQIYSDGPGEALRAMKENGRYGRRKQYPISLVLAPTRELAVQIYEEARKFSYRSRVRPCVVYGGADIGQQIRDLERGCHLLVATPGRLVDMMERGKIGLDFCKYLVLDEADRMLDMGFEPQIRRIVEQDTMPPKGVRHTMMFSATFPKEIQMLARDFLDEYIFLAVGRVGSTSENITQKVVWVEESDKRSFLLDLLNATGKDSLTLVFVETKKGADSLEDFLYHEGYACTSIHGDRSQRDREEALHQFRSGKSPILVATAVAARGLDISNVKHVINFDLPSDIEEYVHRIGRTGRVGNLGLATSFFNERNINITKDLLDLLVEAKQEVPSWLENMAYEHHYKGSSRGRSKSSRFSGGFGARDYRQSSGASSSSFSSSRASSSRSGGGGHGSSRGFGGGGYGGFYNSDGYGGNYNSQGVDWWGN", "test": "Peptide centric local stability assay in SW480 whole cell lysate", "assay_type": "binding", "details": "1 μM", "from_the_text": "The method relies on a limited-proteolysis strategy, where ligand-binding on target proteins is expected to increase the stability of the proteins against proteolytic digestion. This specifically enables the identification of target proteins of small molecules. […] Being a ruthenium(arene) derivative, plecstatin-1 was used to assess potential non-specific interactors of the ruthenium(cymene) fragment. […] However, among the selective interaction partners, we found specific peptides of ATP-dependent RNA helicase DDX3X, tubulin alpha-1A (TUBA1A) and albumin (ALB). Several peptides of TUBA1A and ALB were also found to be stabilized by plecstatin-1 indicating low specificity.\nPeptide Local Stability Assay\nSW480 cancer cells were cultivated in complete medium as above in two T75 adherent flasks.\nThe protein extraction was performed on ice. The flasks were washed twice with PBS (1×, 5 mL) and the wash solution was completely removed. Then, PBS (1×, 2mL, containing 1% PPC) was added in each T75 flak. The cells were scraped off and the cell suspension was transferred to 15 mL falcon tubes. […]\nThe clear supernatant was pooled in a 5 mL Eppendorf tube and kept on ice. The protein concentration was determined using a BCA assay as described above and adjusted to 1 µg/µL using PBS (1×, containing 1% PPC). […]"}},
  "data": [
    {"smiles": "CCC1=C2[O][Ru][O]C2(n2cccn2)c2ccccc2C1=O.Cc1ccc(C(C)C)cc1", "note": "(centres unmarked) [Compound 1a, [(3-ethyl-4-oxo-(pyrazolyl)-dihydronaphthalene)(cymene)ruthenium(II)]]", "values": [
      {"measurement": "p21 expression, SW480", "setting": "p21", "value": "significantly reduced p21 expression"},
      {"measurement": "direct interaction with DDX3X", "setting": "[1]", "value": "most probable direct binding partner"}
    ]}
  ]
}
